Measured values reported in patent US10597388B2, “Pyridazinone herbicides” (FMC CORPORATION, priority 2014, dated 2020).

How the values were obtained:
Assay in all cases: Test D controlled growth environment herbicide test, pre- and postemergence
Type in all cases: in vivo
[1] = system: barley, spring (spring barley, Hordeum vulgare)
How it was run: (§1)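 Pre-emergence: seeds sown in silt loam soil were sprayed with compound in a non-phytotoxic solvent mix containing surfactant. Post-emergence: plants at 2 to 18 cm (1- to 4-leaf stage) in peat moss/vermiculite medium got the same formulation. Visual 0–100 rating versus controls after 14 to 21 d.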

[2] = system: barley, winter (winter barley, Hordeum vulgare)
How it was run: as §1

[3] = system: bluegrass (annual bluegrass, Poa annua)
How it was run: as §1

[4] = system: buckwheat, wild (wild buckwheat, Polygonum convolvulus)
How it was run: as §1

[5] = system: chamomile (scentless chamomile, Matricaria inodora)
How it was run: as §1

[6] = system: field poppy (Papaver rhoeas)
How it was run: as §1

[7] = system: galium (catchweed bedstraw, Galium aparine)
How it was run: as §1

[8] = system: mustard, wild (wild mustard, Sinapis arvensis)
How it was run: as §1

[9] = system: oat, wild (wild oat, Avena fatua)
How it was run: as §1

[10] = system: oilseed rape (Brassica napus)
How it was run: as §1

[11] = system: pigweed (Amaranthus retroflexus)
How it was run: as §1

[12] = system: radish, wild (wild radish, Raphanus raphanistrum)
How it was run: as §1

[13] = system: speedwell (bird's-eye speedwell, Veronica persica)
How it was run: as §1

[14] = Postemergence, 31 g ai/ha, scale 0 to 100 (0 no effect, 100 complete control)
[15] = Postemergence, 125 g ai/ha, visual rating on scale 0 (no effect) to 100 (complete control), 14 to 21 d
[16] = Postemergence, 250 g ai/ha, scale 0 to 100 (0 no effect, 100 complete control)
[17] = Preemergence, 62 g ai/ha, scale 0 to 100 (0 no effect, 100 complete control)
[18] = Preemergence, 125 g ai/ha, scale 0 to 100 (0 no effect, 100 complete control)
[19] = Preemergence, 250 g ai/ha, scale 0 to 100 (0 no effect, 100 complete control)
[20] = postemergence, 62 g ai/ha, scale 0 to 100, 0 no effect, 100 complete control

Cc1nn(C)c(=O)c(-c2c(C)sc3ccc(Cl)cc23)c1O [Compound 104]
Barley, Spring plant response rating [1, 14]: 0
Plant response rating, Barley, Spring [1, 15]: 10
Plant response rating, Barley, Spring [1, 16]: 15
Plant response rating (scale of 0 to 100), Barley, Spring ([1]; Preemergence, 31 g ai/ha): 0
Plant response rating, Barley, Spring [1, 17]: 0
Plant response rating, Barley, Spring [1, 18]: 5
Plant response rating, Barley, Spring [1, 19]: 15
Plant response rating, Barley, Spring [1, 20]: 10
Barley, Winter plant response rating [2, 14]: 0
Plant response rating, Barley, Winter [2, 15]: 10
Plant response rating, Barley, Winter [2, 16]: 15
Plant response rating (scale of 0 to 100), Barley, Winter ([2]; Preemergence, 31 g ai/ha): 0
Plant response rating, Barley, Winter [2, 17]: 0
Plant response rating, Barley, Winter [2, 18]: 10
Plant response rating, Barley, Winter [2, 19]: 20
Plant response rating, Barley, Winter [2, 20]: 10
Bluegrass plant response rating [3, 14]: 10
Plant response rating, Bluegrass [3, 15]: 20
Plant response rating, Bluegrass [3, 16]: 30
Plant response rating (scale of 0 to 100), Bluegrass ([3]; Preemergence, 31 g ai/ha): 35
Plant response rating, Bluegrass [3, 17]: 35
Plant response rating, Bluegrass [3, 18]: 70
Plant response rating, Bluegrass [3, 19]: 75
Plant response rating, Bluegrass [3, 20]: 10
Buckwheat, Wild plant response rating [4, 14]: 90
Plant response rating, Buckwheat, Wild [4, 15]: 100
Plant response rating, Buckwheat, Wild [4, 16]: 100
Plant response rating (scale of 0 to 100), Buckwheat, Wild ([4]; Preemergence, 31 g ai/ha): 0
Plant response rating, Buckwheat, Wild [4, 17]: 60
Plant response rating, Buckwheat, Wild [4, 18]: 55
Plant response rating, Buckwheat, Wild [4, 19]: 95
Plant response rating, Buckwheat, Wild [4, 20]: 95
Chamomile plant response rating [5, 14]: 80
Plant response rating, Chamomile [5, 15]: 95
Plant response rating, Chamomile [5, 16]: 100
Plant response rating, Chamomile [5, 20]: 85
Field Poppy plant response rating [6, 14]: 15
Plant response rating, Field Poppy [6, 15]: 75
Plant response rating, Field Poppy [6, 16]: 80
Plant response rating (scale of 0 to 100), Field Poppy ([6]; Preemergence, 31 g ai/ha): 0
Plant response rating (scale of 0 to 100), Field Poppy ([6]; Preemergence, 62 g ai/ha): 100
Plant response rating, Field Poppy [6, 18]: 100
Plant response rating, Field Poppy [6, 19]: 100
Plant response rating, Field Poppy [6, 20]: 65
Galium plant response rating [7, 14]: 85
Plant response rating, Galium [7, 15]: 100
Plant response rating, Galium [7, 16]: 100
Plant response rating (scale of 0 to 100), Galium ([7]; Preemergence, 31 g ai/ha): 65
Plant response rating (scale of 0 to 100), Galium ([7]; Preemergence, 62 g ai/ha): 95
Plant response rating, Galium [7, 18]: 100
Plant response rating, Galium [7, 19]: 100
Plant response rating, Galium [7, 20]: 90
Mustard, Wild plant response rating [8, 14]: 70
Plant response rating, Mustard, Wild [8, 15]: 85
Plant response rating, Mustard, Wild [8, 16]: 90
Plant response rating (scale of 0 to 100), Mustard, Wild ([8]; Preemergence, 31 g ai/ha): 10
Plant response rating (scale of 0 to 100), Mustard, Wild ([8]; Preemergence, 62 g ai/ha): 70
Plant response rating, Mustard, Wild [8, 18]: 75
Plant response rating, Mustard, Wild [8, 19]: 95
Plant response rating, Mustard, Wild [8, 20]: 75
Oat, Wild plant response rating [9, 14]: 85
Plant response rating, Oat, Wild [9, 15]: 95
Plant response rating, Oat, Wild [9, 16]: 100
Plant response rating (scale of 0 to 100), Oat, Wild ([9]; Preemergence, 31 g ai/ha): 75
Plant response rating (scale of 0 to 100), Oat, Wild ([9]; Preemergence, 62 g ai/ha): 80
Plant response rating, Oat, Wild [9, 18]: 80
Plant response rating, Oat, Wild [9, 19]: 100
Plant response rating, Oat, Wild [9, 20]: 90
Oilseed Rape plant response rating [10, 14]: 70
Plant response rating, Oilseed Rape [10, 15]: 90
Plant response rating, Oilseed Rape [10, 16]: 95
Plant response rating (scale of 0 to 100), Oilseed Rape ([10]; Preemergence, 31 g ai/ha): 15
Plant response rating (scale of 0 to 100), Oilseed Rape ([10]; Preemergence, 62 g ai/ha): 20
Plant response rating, Oilseed Rape [10, 18]: 55
Plant response rating, Oilseed Rape [10, 19]: 55
Plant response rating, Oilseed Rape [10, 20]: 75
Pigweed plant response rating [11, 14]: 100
Plant response rating, Pigweed [11, 15]: 100
Plant response rating, Pigweed [11, 16]: 100
Plant response rating (scale of 0 to 100), Pigweed ([11]; Preemergence, 31 g ai/ha): 60
Plant response rating (scale of 0 to 100), Pigweed ([11]; Preemergence, 62 g ai/ha): 100
Plant response rating, Pigweed [11, 18]: 100
Plant response rating, Pigweed [11, 19]: 100
Plant response rating, Pigweed [11, 20]: 100
Radish, Wild plant response rating [12, 14]: 70
Plant response rating, Radish, Wild [12, 15]: 90
Plant response rating, Radish, Wild [12, 16]: 95
Plant response rating (scale of 0 to 100), Radish, Wild ([12]; Preemergence, 31 g ai/ha): 95
Plant response rating (scale of 0 to 100), Radish, Wild ([12]; Preemergence, 62 g ai/ha): 100
Plant response rating, Radish, Wild [12, 18]: 95
Plant response rating, Radish, Wild [12, 19]: 100
Plant response rating, Radish, Wild [12, 20]: 75
Speedwell plant response rating [13, 14]: 30
Plant response rating, Speedwell [13, 15]: 55
Plant response rating, Speedwell [13, 16]: 70
Plant response rating, Speedwell [13, 20]: 35
